The text below walks through data of EP0435221A2, “New benzanthracene compound and a process for preparing the same” (HOECHST JAPAN LIMITED, priority 1989, dated 1991).

In brackets after ≈: the same amount, converted by molar mass. Bounds are passed on as bounds.

This assay deals with mouse leukemia L-1210 cells. Briefly: inhibitory effect on the proliferation of mouse leukemia L-1210 cells. To be noted: L1210; 50% inhibitory concentration; proliferation of mouse leukemia L-1210 cells (1 x 10⁶ cells/ml). It is filed as cell-based. The method, then:
Compound 683 of the present invention, as well as the structurally related X-14881 D, was tested for inhibitory effect on the proliferation of mouse leukemia L-1210 cells(1 x 10⁶ cells/ml). The 50% inhibitory concentration values thereof are as follows.

For orientation: IC50 means the concentration at which inhibition is half-maximal. Low readings indicate greater potency in that assay, high ones weaker potency in that assay. In turn, `COc1cccc2c1C(O)C13C=CC4=C(C(=O)CC(C)C4O)C1(O3)C2O` (centres unmarked) [Compound 683] gave an IC50 of 3 µg/mL (≈ 8.42 µM).

With `COc1cccc2c1C(O)C1(O)C=CC3=C(C(=O)CC(C)C3O)C1C2O` (centres unmarked) [X-14881 D], the IC50 was > 100 µg/mL.
